How the values were obtained:
Format in all cases: binding
panel of 442 kinases [1] = biological target: T1, panel of 442 kinases (Homo sapiens, UniProt Q06418); details: kinase TYRO3; compound concentration 10 µM
T1 construct: purchased KINOMEscan
T1 sequence (Q06418 41-890): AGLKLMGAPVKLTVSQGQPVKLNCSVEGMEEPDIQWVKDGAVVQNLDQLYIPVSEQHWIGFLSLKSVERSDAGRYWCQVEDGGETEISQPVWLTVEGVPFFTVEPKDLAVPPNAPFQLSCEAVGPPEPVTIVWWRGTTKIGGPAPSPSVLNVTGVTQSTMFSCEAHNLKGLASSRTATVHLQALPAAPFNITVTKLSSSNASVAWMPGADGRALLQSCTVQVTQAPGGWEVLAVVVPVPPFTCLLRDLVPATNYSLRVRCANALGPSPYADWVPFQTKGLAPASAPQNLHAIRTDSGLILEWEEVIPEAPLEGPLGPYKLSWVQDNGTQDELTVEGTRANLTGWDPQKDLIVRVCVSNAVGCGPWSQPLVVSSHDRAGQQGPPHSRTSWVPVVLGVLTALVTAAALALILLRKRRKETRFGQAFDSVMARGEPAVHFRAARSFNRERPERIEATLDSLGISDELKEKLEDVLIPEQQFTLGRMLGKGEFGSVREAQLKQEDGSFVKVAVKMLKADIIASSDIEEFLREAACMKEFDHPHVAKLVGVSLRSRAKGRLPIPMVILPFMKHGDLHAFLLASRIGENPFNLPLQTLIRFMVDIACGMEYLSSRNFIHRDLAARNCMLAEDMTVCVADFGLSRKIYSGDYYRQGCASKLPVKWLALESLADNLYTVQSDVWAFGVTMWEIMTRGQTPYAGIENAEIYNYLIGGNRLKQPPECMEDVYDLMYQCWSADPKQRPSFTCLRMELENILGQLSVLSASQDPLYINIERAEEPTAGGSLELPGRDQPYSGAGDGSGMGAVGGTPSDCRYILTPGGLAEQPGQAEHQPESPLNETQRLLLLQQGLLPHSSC
Excerpt: (§1) We assessed the selectivity of members of this scaffold using the KINOMEscan methodology across a near comprehensive panel of 442 kinases [[18,27]].

panel of 442 kinases [2] = biological target: T2, panel of 442 kinases (Homo sapiens, UniProt Q9BVS4); details: Compound Concentration 10 µM
T2 construct: purchased KINOMEscan
Excerpt: as §1

panel of 442 kinases [3] = biological target: T3, panel of 442 kinases (Homo sapiens, UniProt O94804); details: Compound Concentration 10 µM
T3 construct: purchased KINOMEscan
Excerpt: as §1

T3 sequence (O94804 whole entry): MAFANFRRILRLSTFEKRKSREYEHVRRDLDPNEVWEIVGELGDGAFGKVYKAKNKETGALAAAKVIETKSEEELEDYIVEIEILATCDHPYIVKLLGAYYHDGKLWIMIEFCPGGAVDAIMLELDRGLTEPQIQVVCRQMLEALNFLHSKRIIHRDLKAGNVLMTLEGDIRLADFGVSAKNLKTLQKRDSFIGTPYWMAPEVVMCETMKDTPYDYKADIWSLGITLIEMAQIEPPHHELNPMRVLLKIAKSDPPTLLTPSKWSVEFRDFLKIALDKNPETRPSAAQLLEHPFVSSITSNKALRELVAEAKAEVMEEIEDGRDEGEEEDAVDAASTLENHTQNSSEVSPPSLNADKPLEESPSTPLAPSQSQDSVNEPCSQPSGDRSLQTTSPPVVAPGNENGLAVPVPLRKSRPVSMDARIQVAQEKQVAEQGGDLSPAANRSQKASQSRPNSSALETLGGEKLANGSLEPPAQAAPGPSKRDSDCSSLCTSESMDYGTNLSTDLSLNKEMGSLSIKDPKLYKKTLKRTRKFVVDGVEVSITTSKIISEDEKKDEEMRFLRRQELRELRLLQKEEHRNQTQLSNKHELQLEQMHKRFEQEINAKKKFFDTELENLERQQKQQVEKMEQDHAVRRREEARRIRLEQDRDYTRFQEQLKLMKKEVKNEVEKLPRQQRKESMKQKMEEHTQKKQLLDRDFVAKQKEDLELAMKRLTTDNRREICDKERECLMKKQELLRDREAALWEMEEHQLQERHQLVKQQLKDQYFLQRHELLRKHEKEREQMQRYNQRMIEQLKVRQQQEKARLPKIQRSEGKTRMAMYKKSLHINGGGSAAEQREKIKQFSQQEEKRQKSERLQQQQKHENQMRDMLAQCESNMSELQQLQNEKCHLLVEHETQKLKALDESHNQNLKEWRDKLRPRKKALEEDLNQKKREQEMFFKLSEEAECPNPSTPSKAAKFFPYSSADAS
T2 sequence (Q9BVS4 whole entry): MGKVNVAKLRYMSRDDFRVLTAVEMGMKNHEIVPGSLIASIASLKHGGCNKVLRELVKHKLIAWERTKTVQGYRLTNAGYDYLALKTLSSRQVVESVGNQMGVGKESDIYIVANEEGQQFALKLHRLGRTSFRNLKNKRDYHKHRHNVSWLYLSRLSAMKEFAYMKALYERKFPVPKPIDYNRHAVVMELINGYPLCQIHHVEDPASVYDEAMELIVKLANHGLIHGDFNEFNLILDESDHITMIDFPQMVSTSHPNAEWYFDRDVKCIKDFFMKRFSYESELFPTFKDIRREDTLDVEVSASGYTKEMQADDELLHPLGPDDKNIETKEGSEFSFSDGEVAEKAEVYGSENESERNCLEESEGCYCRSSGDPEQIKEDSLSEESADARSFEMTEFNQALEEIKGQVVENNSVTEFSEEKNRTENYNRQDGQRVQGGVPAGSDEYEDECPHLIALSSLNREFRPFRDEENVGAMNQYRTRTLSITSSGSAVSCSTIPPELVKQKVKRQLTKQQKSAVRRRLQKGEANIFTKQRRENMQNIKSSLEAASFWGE

Row | Structure (SMILES) | % Ctrl, TYRO3 (panel of 442 kinases [1]) | KINOMEscan: RIOK2 (panel of 442 kinases [2]) | KINOMEscan: LOK (panel of 442 kinases [3])
1 | COc1cc(C(=O)N2CCC(N3CCN(C)CC3)CC2)ccc1Nc1ncc2c(n1)N1CCc3cccc(c31)C(=O)N2C [Compound 24] | 100 % Ctrl | 81 | 70
2 | CCOc1cc(C(=O)N2CCC(N3CCN(C)CC3)CC2)ccc1Nc1ncc2c(n1)N(C1CCCC1)c1ccccc1C(=O)N2C [Compound 26] | 100 % Ctrl | 81 | 100
3 | COc1cc(C(=O)N2CCC(N3CCN(C)CC3)CC2)ccc1Nc1ncc2c(n1)N(C1CCCC1)c1ccccc1C(=O)N2C [Compound 25, 11-cyclopentyl-2-((2-methoxy-4-(4-(4-methylpiperazin-1-yl)piperidine-1-carbonyl)phenyl)amino)-5-methyl-5H-benzo[e]pyrimido[5,4-b][1,4]diazepin-6(11H)-one] | 100 % Ctrl | 93 | 100
4 | COc1cc(C(=O)N2CCC(N3CCN(C)CC3)CC2)ccc1Nc1ncc2c(n1)N(C)c1ccccc1C(=O)N2C [15 (LRRK2-IN-1)] | 100 % Ctrl | 100 | 100
